Where two headings read alike, the source gives them in different places.
Tests used:
[1] = target: PARP (Homo sapiens (Human), UniProt P09874); experiment: PARP assay (chemiluminescent PARP assay kit, Trevigen); assay type: biochemical; conditions: for inhibition at 20 µM: read-out: PARP % inhib @ 20 uM
Experimental: Modulatory activity of compounds described herein was assessed in vitro in cell-free CK2 assays. Modulatory activity of compounds described herein also are assessed in vitro in cell-free PARP assays. These assays are described hereafter.
PARP assays are conducted using a chemiluminescent PARP assay kit (Trevigen). Briefly, reactions are performed in Histone-coated strip wells, by adding 10 microliters test compound dissolved in 1×PARP Buffer (prepared by mixing 20×PARP buffer diluted with high-purity water) and 15 microliters diluted PARP-HSA enzyme (diluted in 1× PARP buffer, 0.1 unit per well) to 25 microliters PARP cocktail (prepared from 10×PARP cocktail and 10× activated DNA, both 2.5 microliters per well and 20 microliters per well of 1×PARP buffer). The reactions are incubated at ambient temperature for 60 minutes, then the liquid was removed. After washing the wells four times with PBS (200 ul), 50 microliters of STREP-HRP (Horseradish Peroxidase) solution (diluted 500-fold in 1× Strep-Diluent) was added and the reactions were allowed to incubate for 30 minutes at ambient temperature. The liquid was removed and, after washing the wells four times with PBS (200 ul), 50 microliters each of PeroxyGlo A and B (Chemiluminescent Horseradish Peroxidase substrates) are added and the resulting chemiluminescence quantified on the SpectraMax M5 plate reader.

[2] = tested on: HCT-116 human colorectal carcinoma cells; experiment: Cell proliferation assay, Alamar Blue, HCT-116; assay type: cell-based;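 also: cells exposed to compound for about 4 days, then Alamar Blue added and fluorescence read after about 4 h, medium-only wells as control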
[3] = tested on: MiaPaca human pancreatic carcinoma cells; experiment: Cell proliferation assay, Alamar Blue, MiaPaca; assay type: cell-based
Experimental: A representative cell-proliferation assay protocol using Alamar Blue dye (stored at 4° C., use 20 ul per well) is described hereafter.
c. Plate 4,000-5,000 cells per well in 100 μl of medium and seed into a 96-well plate according to the following plate layout. Add cell culture medium only to wells B10 to B12. Wells B1 to B9 have cells but no compound added.
d. Add 100 μl of 2× drug dilution to each well in a concentration shown in the plate layout above. At the same time, add 100 μl of media into the control wells (wells B10 to B12). Total volume is 200 μl/well.
e. Incubate four (4) days at 37° C., 5% CO2 in a humidified incubator.
f. Add 20 μl Alamar Blue reagent to each well.
g. Incubate for four (4) hours at 37° C., 5% CO2 in a humidified incubator.
h. Record fluorescence at an excitation wavelength of 544 nm and emission wavelength of 590 nm using a microplate reader.
In the assays, cells are cultured with a test compound for approximately four days, the dye then is added to the cells and fluorescence of […] dye is detected after approximately four hours. Different types of cells can be utilized in the assays (e.g., HCT-116 human colorectal carcinoma cells, PC-3 human prostatic cancer cells and MiaPaca human pancreatic carcinoma cells). Anti-proliferative effects of representative compounds are provided hereafter.

[4] = at 1 μM, Table 10, read-out: PARP Inhibition %
[5] = 1 uM, Table 12, read-out: PARP % inhib @ 1 uM
[6] = HCT-116, Table 16, first HCT-116 column
[7] = HCT-116, Table 16, second HCT-116 column

Sequence of PARP (P09874 whole entry): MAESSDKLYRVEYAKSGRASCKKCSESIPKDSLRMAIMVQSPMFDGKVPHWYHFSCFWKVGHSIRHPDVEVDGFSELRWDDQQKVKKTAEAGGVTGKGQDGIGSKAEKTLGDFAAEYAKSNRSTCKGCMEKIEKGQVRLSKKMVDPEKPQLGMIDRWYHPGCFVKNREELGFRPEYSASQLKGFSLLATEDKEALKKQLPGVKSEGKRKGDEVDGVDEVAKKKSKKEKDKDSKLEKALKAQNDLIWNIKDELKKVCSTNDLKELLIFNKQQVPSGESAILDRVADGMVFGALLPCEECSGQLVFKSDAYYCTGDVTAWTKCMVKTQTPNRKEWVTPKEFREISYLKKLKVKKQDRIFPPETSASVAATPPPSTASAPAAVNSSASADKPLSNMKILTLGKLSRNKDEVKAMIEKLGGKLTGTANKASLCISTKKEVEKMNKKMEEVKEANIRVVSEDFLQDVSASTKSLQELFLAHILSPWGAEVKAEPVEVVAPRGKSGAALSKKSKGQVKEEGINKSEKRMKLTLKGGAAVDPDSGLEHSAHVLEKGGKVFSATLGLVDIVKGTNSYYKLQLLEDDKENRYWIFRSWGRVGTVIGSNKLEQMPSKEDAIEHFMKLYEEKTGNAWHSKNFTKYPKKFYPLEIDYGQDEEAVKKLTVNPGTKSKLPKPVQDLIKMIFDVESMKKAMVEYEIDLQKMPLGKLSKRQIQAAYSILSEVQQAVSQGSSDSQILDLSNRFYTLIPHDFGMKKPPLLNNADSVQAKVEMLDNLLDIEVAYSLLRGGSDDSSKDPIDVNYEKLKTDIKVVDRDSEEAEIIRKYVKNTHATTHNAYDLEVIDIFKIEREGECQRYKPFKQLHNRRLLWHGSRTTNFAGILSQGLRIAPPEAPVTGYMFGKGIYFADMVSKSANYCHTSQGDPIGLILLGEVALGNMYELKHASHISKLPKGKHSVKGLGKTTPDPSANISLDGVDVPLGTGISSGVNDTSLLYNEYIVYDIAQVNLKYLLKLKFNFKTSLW

Row | SMILES | inhibition at 1 µM [1, 5] [%] | IC50 ([3]; MIA PaCa-2, Table 16) [µM] | IC50 [2, 7] [µM] | other results
1 | CN(C)CCNc1nc2cc(C(=O)O)ccc2c2ccccc12 |  |  |  | inhibition at 1 µM [1, 4]: 15%
2 | O=C(O)c1ccc2c(c1)nc(Nc1ccccc1)c1ccccc12 |  |  |  | inhibition at 1 µM [1, 4]: 9%
3 | O=c1c2ccccc2c2ccc(-c3nnn[nH]3)cc2n1CCCO |  |  |  | inhibition at 1 µM [1, 4]: 33%
4 | O=c1[nH]c2ccccc2c2sccc12 |  |  |  | inhibition at 20 µM ([1]; Table 12): 0%
5 | CN(C)CCNC(=O)c1ccc2c(c1)[nH]c(=O)c1ccsc12 |  |  |  | inhibition at 20 µM ([1]; Table 12): 85%
6 | O=C(c1ccc2c(c1)[nH]c(=O)c1ccsc12)N1CCOCC1 | 82 |  |  | inhibition at 20 µM ([1]; Table 12): 95%; IC50 ([1]; Table 12): 0.4 µM
7 | CCCNC(=O)c1ccc2c(c1)[nH]c(=O)c1ccsc12 | 65 |  |  | inhibition at 20 µM ([1]; Table 12): 88%; IC50 ([1]; Table 12): 1 µM
8 | O=C(NCCc1ccccn1)c1ccc2c(c1)[nH]c(=O)c1ccsc12 | 55 |  |  | inhibition at 20 µM ([1]; Table 12): 83%; IC50 ([1]; Table 12): 1 µM
9 | COCCNC(=O)c1ccc2c(c1)[nH]c(=O)c1ccsc12 | 65 |  |  | inhibition at 20 µM ([1]; Table 12): 93%; IC50 ([1]; Table 12): 0.4 µM
10 | COc1ccc(CCNC(=O)c2ccc3c(c2)[nH]c(=O)c2ccsc23)cc1OC | 15 |  |  | inhibition at 20 µM ([1]; Table 12): 67%
11 | CN(C)C(=O)c1ccc2c(c1)[nH]c(=O)c1ccsc12 | 89 |  |  | inhibition at 20 µM ([1]; Table 12): 97%; IC50 ([1]; Table 12): 0.2 µM
12 | CC(=O)N1CCN(C(=O)c2ccc3c(c2)[nH]c(=O)c2ccsc23)CC1 | 71 |  |  | inhibition at 20 µM ([1]; Table 12): 94%; IC50 ([1]; Table 12): 0.3 µM
13 | O=C(NC1CC1)c1ccc2c(c1)[nH]c(=O)c1ccsc12 | 69 |  |  | inhibition at 20 µM ([1]; Table 12): 90%; IC50 ([1]; Table 12): 0.5 µM
14 | O=C(NCc1ccccc1)c1ccc2c(c1)[nH]c(=O)c1ccsc12 | 36 |  |  | 
15 | COC(=O)c1ccccc1NC(=O)c1ccc2c(c1)[nH]c(=O)c1ccsc12 | 24 |  |  | 
16 | CC(C)(C)OC(=O)N1CCN(C(=O)c2ccc3c(c2)[nH]c(=O)c2ccsc23)CC1 | 72 |  |  | IC50 ([1]; Table 12): 0.3 µM
17 | CC(C)(C)OC(=O)NC1CCN(C(=O)c2ccc3c(c2)[nH]c(=O)c2ccsc23)CC1 | 49 |  |  | 
18 | COc1ccccc1CNC(=O)c1ccc2c(c1)[nH]c(=O)c1ccsc12 | 27 |  |  | 
19 | Cc1cc(CNC(=O)c2ccc3c(c2)[nH]c(=O)c2ccsc23)no1 | 67 |  |  | IC50 ([1]; Table 12): 0.5 µM
20 | COc1ccc(CNC(=O)c2ccc3c(c2)[nH]c(=O)c2ccsc23)cc1 | 45 |  |  | 

Row | SMILES | inhibition at 1 µM [1, 5] [%] | IC50 ([3]; MIA PaCa-2, Table 16) [µM] | IC50 [2, 7] [µM] | other results
21 | O=C(NCc1ccccn1)c1ccc2c(c1)[nH]c(=O)c1ccsc12 | 71 |  |  | IC50 ([1]; Table 12): 1 µM
22 | O=C(NCCc1ccccc1)c1ccc2c(c1)[nH]c(=O)c1ccsc12 | 64 |  |  | IC50 ([1]; Table 12): 0.5 µM
23 | O=C(NCc1ccncc1)c1ccc2c(c1)[nH]c(=O)c1ccsc12 | 75 |  |  | IC50 ([1]; Table 12): 1 µM
24 | O=C(NCc1cccnc1)c1ccc2c(c1)[nH]c(=O)c1ccsc12 | 71 |  |  | 
25 | O=C(Nc1ccc(CN2CCS(=O)(=O)CC2)cc1)c1ccc2c(c1)[nH]c(=O)c1ccsc12 | 29 |  |  | 
26 | O=C(c1ccc2c(c1)[nH]c(=O)c1ccsc12)N1CCNCC1 | 96 |  |  | IC50 ([1]; Table 12): 0.03 µM
27 | NC1CCN(C(=O)c2ccc3c(c2)[nH]c(=O)c2ccsc23)CC1 | 96 |  |  | IC50 ([1]; Table 12): 0.02 µM
28 | O=C(Nc1ccccc1C(=O)O)c1ccc2c(c1)[nH]c(=O)c1ccsc12 | 12 |  |  | 
29 | NC(=O)c1ccc2c(c1)[nH]c(=O)c1ccsc12 | 79 |  |  | IC50 ([1]; Table 12): 0.06 µM
30 | O=c1[nH]c2cc(CO)ccc2c2sccc12 | 74 |  |  | IC50 ([1]; Table 12): 0.4 µM
31 | O=C(O)c1ccc2c3sccc3c(=O)n(CCCO)c2c1 | 21 |  |  | 
32 | O=C(O)c1ccc2c(c1)nc(Nc1ccc(F)c(Cl)c1)c1ccsc12 |  | > 10 |  | IC50 [2, 6]: > 10 µM
33 | COc1cccc(Nc2nc3cc(C(=O)O)ccc3c3sccc23)c1 |  | > 10 |  | IC50 [2, 6]: > 10 µM
34 | NS(=O)(=O)c1cccc(Nc2nc3cc(-c4nnn[nH]4)ccc3c3sccc23)c1 |  | > 10 | > 10 | 
35 | Brc1cccc(Nc2nc3cc(-c4nnn[nH]4)ccc3c3sccc23)c1 |  | > 10 | > 10 | 
36 | O=C(O)c1cccc(Nc2nc3cc(-c4nnn[nH]4)ccc3c3sccc23)c1 |  | > 10 |  | 
37 | CCOc1cccc(Nc2nc3cc(C(=O)O)ccc3c3sccc23)c1 |  | > 10 | > 10 | 
38 | O=C(c1cccc(Nc2nc3cc(-c4nnn[nH]4)ccc3c3sccc23)c1)N1CCOCC1 |  | > 10 | > 10 | 
39 | CN(C)CCNC(=O)c1cccc(Nc2nc3cc(-c4nnn[nH]4)ccc3c3sccc23)c1 |  | > 10 | > 10 | 
40 | COC(=O)CNC(=O)c1cccc(Nc2nc3cc(-c4nnn[nH]4)ccc3c3sccc23)c1 |  | > 10 | > 10 | 

Row | SMILES | inhibition at 1 µM [1, 5] [%] | IC50 ([3]; MIA PaCa-2, Table 16) [µM] | IC50 [2, 7] [µM] | other results
41 | CC(C)(C)OC(=O)CCNC(=O)c1cccc(Nc2nc3cc(-c4nnn[nH]4)ccc3c3sccc23)c1 |  | > 10 |  | 
42 | O=C(NCc1cccnc1)c1cccc(Nc2nc3cc(-c4nnn[nH]4)ccc3c3sccc23)c1 |  | > 10 | > 10 | 
43 | CN(C)C(=O)c1cccc(Nc2nc3cc(-c4nnn[nH]4)ccc3c3sccc23)c1 |  | > 10 | > 10 | 
44 | Cc1cc(CNC(=O)c2cccc(Nc3nc4cc(-c5nnn[nH]5)ccc4c4sccc34)c2)no1 |  | > 10 | > 10 | 
45 | COCCNC(=O)c1cccc(Nc2nc3cc(-c4nnn[nH]4)ccc3c3sccc23)c1 |  | > 10 | > 10 | 
46 | CC(=O)N1CCN(C(=O)c2cccc(Nc3nc4cc(-c5nnn[nH]5)ccc4c4sccc34)c2)CC1 |  | > 10 | > 10 | 
47 | CNC(=O)Cc1cccc(Nc2nc3cc(C(=O)O)ccc3c3sccc23)c1 |  | > 10 | > 10 | 
48 | O=C(O)c1ccc2c(c1)nc(Nc1cccc(Br)c1)c1ccsc12 |  | > 10 | > 10 | 
49 | O=C(O)c1ccc2c(c1)nc(Nc1cccc(Cl)c1F)c1ccsc12 |  | > 10 | > 10 | 
50 | O=C(O)c1ccc2c(c1)nc(Nc1ccc3[nH]ccc3c1)c1ccsc12 |  | > 10 | > 10 | 
51 | Cc1cccc(Nc2nc3cc(C(=O)O)ccc3c3sccc23)c1 |  | > 10 | > 10 | 
52 | O=C(O)c1ccc2c(c1)nc(Nc1ccc3cc[nH]c3c1)c1ccsc12 |  | > 10 | > 10 | 
53 | O=C(O)c1ccc2c(c1)nc(Nc1cccc(-c3ccccc3)c1)c1ccsc12 |  | > 10 |  | 
54 | CNS(=O)(=O)c1cccc(Nc2nc3cc(C(=O)O)ccc3c3sccc23)c1 |  | > 10 | > 10 | 
55 | CN(C)c1ncc2c(n1)c(Nc1cccc(Cl)c1)nc1cc(C(=O)O)ccc12 |  |  |  | IC50 ([3]; MIA PaCa-2, Table 18): > 50 µM
56 | COC(=O)c1ccc2c(c1)nc(Cl)c1ccsc12 [drawing 552] | 18 |  |  | 
57 | COC(=O)c1ccc2c(c1)nc(NC1CC1)c1nc(SC)ncc12 [drawing 1099] |  |  |  | IC50 ([3]; MIA PaCa-2, Table 18): > 50 µM
58 | CN(C)CCNc1nc2cc(C(=O)O)ccc2c2cnc(NC3CC3)nc12 [drawing 1100] |  |  |  | IC50 ([3]; MIA PaCa-2, Table 18): > 50 µM

From US9062043B2, “Fused tricyclic compounds as serine-threonine protein kinase and PARP modulators” (SENHWA BIOSCIENCES, INC., priority 2006, dated 2015)
